Assay results taken from patent US12208075B2, “Antimicrobial compositions containing free fatty acids” (priority 2009, dated 2025).

How the values were obtained:
[1] = tested on: adhesion of Candida albicans to human Buccal Epithelial Cells; test: microbe, parasite or virus in culture; assay type: cell-based; conditions: for incremental increase in adhesion inhibitory effect achieved by de-lipidisation (in brackets): versus Table 4
[2] = tested on: Staphylococcus aureus RN 4220; test: Comparative microbicidal suspension test, free vs emulsified fatty acids; assay type: cell-based
fresh sheep blood [3] = test: Blood clotting time, visual tube comparison; conditions: between 0.5% and […] caprylic acid emulsified in 0.5% DLL
Protocol: Comparative measurement of accelerated clotting times is achieved using appropriate volumes of fresh blood mixed with a volume of test material, where the combined volumes totaled 5 ml in each case in a 15 ml graduated Greiner centrifuge tube (Greiner Bio-one, North Carolina, USA). Immediately after addition of fresh blood, the tubes are inverted twice to mix and allowed to stand without further agitation. Clot formation is visibly apparent when the tubes are tilted slightly, and once a clot formed its integrity was such that it would remain suspended when the tubes were inverted. In each test a 5 ml sample of fresh whole blood (undiluted) is used as a control.
Rate of blood clotting was determined using freshly aspirated sheep blood and apparatus and procedures described in the Methods section. An activated blood clotting meter was used to measure anti-clotting effects and a visual tube comparison to evaluate reduced clotting times.
Blood clotting and/or anti-clotting effects were assessed using a 20% ratio of test item to fresh blood: in practice 4.0 ml of fresh sheep blood was added to tubes containing 1.0 ml of test item, inverted twice to mix and then either left standing for visual assessment of reduced clotting time or a single drop was applied to the cuvette of an activated blood clotting apparatus for assessment of anti-clotting effect (extended time to clot formation).

Staphylococcus aureus [4] = test: Ex-vivo wound model (beef brisket); conditions: FIG. 10, 100 minutes exposure, 7 logs inoculum
[5] = tested on: Staphylococcus aureus, Streptococcus epidermidis, Escherichia coli and Candida albicans; test: Microbicidal effect of catheter locking solutions in whole blood, test inoculums overall; assay type: cell-based; conditions: 20%, one hour in whole blood
fresh sheep blood [6] = test: Activated blood clotting time (Hemochron meter)
Escherichia coli = test: Microbicidal effect of catheter locking solutions in whole blood; assay type: cell-based; conditions: 20% by volume, 60 min
Candida albicans = test: as above; assay type: cell-based; conditions: 20% by volume, 60 min
Staphylococcus aureus [7] = test: as above; assay type: cell-based; conditions: 20% by volume, 60 min
[8] = tested on: Streptococcus epidermidis; test: as above; assay type: cell-based; conditions: 20% by volume, 60 min
[9] = 2.5 mg/ml, Table 5, de-lipidised
[10] = 5.0 mg/ml, Table 5, de-lipidised
[11] = 10 mg/ml, Table 5, de-lipidised
[12] = Table 21, 0.5% W/V fatty acid, free or emulsified in 0.4% W/V DLL
[13] = Table 22, low dose, listed as Free caprylic acid 0.05%
[14] = Table 22, low dose, listed as Free caprylic acid 0.1%
[15] = 2.5 mg/ml, Table 4, lipids as purchased
[16] = 5.0 mg/ml, Table 4, lipids as purchased
[17] = 10 mg/ml, Table 4, lipids as purchased

Compound	% Adhesion ([1]; Table 21)	% inhibition ([1]; Table 21)	Test Count/100 BEC [1, 12]	viable count (log number) ([2]; 0 Seconds at 37° C.)	viable count (log number) ([2]; 60 Seconds at 37° C.)	viable count (log number) ([2]; 120 Seconds at 37° C.)	viable count (log number) ([2]; 180 Seconds at 37° C.)	viable count (log number) ([2]; 240 Seconds at 37° C.)	viable count (log number) ([2]; 300 Seconds at 37° C.)	viable count (log number) ([2]; 360 Seconds at 37° C.)	other results
CC(C)=CCC[C@@H](C)[C@H]1CC[C@@]2(C)C3=C(CC[C@]12C)[C@@]1(C)CC[C@H](O)C(C)(C)[C@@H]1CC3 [DL L]	–	–	–	–	–	–	–	–	–	–	% inhibition at 2.5 mg/ml ([1]; 2.5 mg/ml, Table 5): 54%; Candida albicans per 100 Buccal Epithelial Cell [1, 9]: 247; incremental increase in adhesion inhibitory effect achieved by de-lipidisation (in brackets) ([1]; 2.5 mg/ml): +13%; Candida albicans per 100 Buccal Epithelial Cell [1, 10]: 91; Candida albicans per 100 Buccal Epithelial Cell [1, 11]: 49
CCCCCCCCCC(=O)O [Free capric acid, capric acid]	90%	10%	386	6.94 log	6.32 log	6.48 log	6.73 log	6.36 log	5.97 log	6.11 log	–
CCCCCC(=O)O [Free caproic acid, caproic acid]	89%	11%	380	7.87 log	7.17 log	6.82 log	7.57 log	6.93 log	6.47 log	6.73 log	–
CCCCCCCC(=O)O [Free caprylic acid, caprylic acid]	93%	7%	400	6.94 log	6.79 log	6.83 log	6.21 log	6.33 log	5.89 log	6.17 log	% Adhesion [1, 13]: 94%; % inhibition [1, 13]: 6%; Test Count/100 BEC [1, 13]: 459; % Adhesion [1, 14]: 95%; % inhibition [1, 14]: 5%; Test Count/100 BEC [1, 14]: 466; factor of amplification of adhesion inhibitory effect in emulsified form ([1]; emulsified versus free): 14; clotting time (fresh sheep blood [3]): approximately 40 seconds
CCCCCCCCCCCC(=O)O [Free lauric acid, lauric acid]	95%	5%	450	–	–	–	–	–	–	–	–
CCCCCCCCCCCCCC(=O)O [Free myristic acid, myristic acid]	92%	8%	436	7.38 log	7.27 log	7.84 log	6.93 log	7.11 log	6.26 log	6.84 log	–
CCCCCCCCC(=O)O [Free pelargonic acid, pelargonic acid]	84%	16%	360	6.94 log	6.55 log	6.31 log	5.96 log	5.67 log	5.83 log	5.27 log	–
C=CCCCCCCCCC(=O)O [Free undecylenic acid, undecylenic acid]	86%	14%	448	7.87 log	7.19 log	6.99 log	6.57 log	6.83 log	6.67 log	6.31 log	–
CC(C)=CCC[C@@H](C)[C@H]1CC[C@@]2(C)C3=C(CC[C@]12C)[C@@]1(C)CC[C@H](O)C(C)(C)[C@@H]1CC3 [L, Lanosterol]	–	–	–	–	–	–	–	–	–	–	Candida albicans per 100 Buccal Epithelial Cell [1, 15]: 306; Candida albicans per 100 Buccal Epithelial Cell [1, 16]: 236; Candida albicans per 100 Buccal Epithelial Cell [1, 17]: 133; inhibition at 2500 µg/mL ([1]; Candida albicans, Epithelial cell, read-out: % inhibition at 2.5 mg/ml): 41%
[H]/N=C(\N/C(=N/[H])NCCCCCCNC(=N)NC(=N)Nc1ccc(Cl)cc1)Nc1ccc(Cl)cc1 [chlorhexidine, chlorhexidine gluconate]	–	–	–	–	–	–	–	–	–	–	logs remaining (Staphylococcus aureus [4]): 1 logs
Bovine Serum Albumin [BSA, reference compound]	–	–	–	–	–	–	–	–	–	–	% inhibition at 2.5 mg/ml ([1]; 2.5 mg/ml, Table 4): 19%; Candida albicans per 100 Buccal Epithelial Cell [1, 15]: 400; Candida albicans per 100 Buccal Epithelial Cell ([1]; 2.5 mg/ml, Table 6, water or 100 mM salt pH 4.5, with/without BSA, listed as BSA Sod′ Lactate): 408; Candida albicans per 100 Buccal Epithelial Cell ([1]; 2.5 mg/ml, Table 6, water or 100 mM salt pH 4.5, with/without BSA, listed as BSA Sod′ citrate): 393; Candida albicans per 100 Buccal Epithelial Cell ([1]; 2.5 mg/ml, Table 6, water or 100 mM salt pH 4.5, with/without BSA, listed as BSA: water): 438; Candida albicans per 100 Buccal Epithelial Cell [1, 16]: 379; % inhibition at 5 mg/ml ([1]; Table 6, listed as BSA Sod′ Lactate): 21%; Candida albicans per 100 Buccal Epithelial Cell ([1]; 5.0 mg/ml, Table 6, listed as BSA Sod′ Lactate): 372; % inhibition at 5 mg/ml ([1]; Table 6, listed as BSA Sod′ citrate): 22%; Candida albicans per 100 Buccal Epithelial Cell ([1]; 5.0 mg/ml, Table 6, listed as BSA Sod′ citrate): 369; % inhibition at 5 mg/ml ([1]; Table 6, listed as BSA: water): 12%; Candida albicans per 100 Buccal Epithelial Cell ([1]; 5.0 mg/ml, Table 6, listed as BSA: water): 400; Candida albicans per 100 Buccal Epithelial Cell [1, 17]: 303; Candida albicans per 100 Buccal Epithelial Cell ([1]; 10 mg/ml, Table 6): 362; % Adhesion ([1]; Table 16): 83%; % inhibition ([1]; Table 16): 17%; Count/100 BEC ([1]; Table 16, 100 mM sodium citrate pH 4.5, 0.5% Methocel, lipids 0.1%): 425
DL BSA: Bovine Serum Albumin treated by the de-lipidisation procedure [reference compound]	–	–	–	–	–	–	–	–	–	–	% inhibition at 2.5 mg/ml ([1]; 2.5 mg/ml, Table 5): 16%; Candida albicans per 100 Buccal Epithelial Cell [1, 9]: 431; incremental increase in adhesion inhibitory effect achieved by de-lipidisation (in brackets) ([1]; 2.5 mg/ml): −3%; Candida albicans per 100 Buccal Epithelial Cell [1, 10]: 393; Candida albicans per 100 Buccal Epithelial Cell [1, 11]: 329
Heparin	–	–	–	–	–	–	–	–	–	–	microbicidal effect in words [5]: no microbial inhibition; Activated Blood Clotting Time (fresh sheep blood [6]; 5% incorporation in whole blood): 284 s; Activated Blood Clotting Time (fresh sheep blood [6]; 10% incorporation in whole blood): 423 s; Activated Blood Clotting Time (fresh sheep blood [6]; 15% incorporation in whole blood): 601 s; Activated Blood Clotting Time (fresh sheep blood [6]; 20% incorporation in whole blood): 1023 s; viable count in whole blood (log number) (Escherichia coli): 7.92 log; viable count in whole blood (log number) (Candida albicans): 6.94 log; viable count in whole blood (log number) (Staphylococcus aureus [7]): 8.39 log; viable count in whole blood (log number) [8]: 8.22 log
